The target in one experiment is T1, purified HLA DRB5*0101 (Homo sapiens, UniProt P01903+Q30154).
T1 construct: purified from EBV transformed homozygous cell lines or single MHC allele transfected 721.221, C1R, or fibroblast lines; made in house
The experiment can be described thus: HLA-DR radioligand binding inhibition assay, DRB5*0101. To be noted: IC50 nM purified HLA DRB5 *0101, purified HLA DRB5*0101. The method in brief: (§1)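 First, HLA-DR was purified from lysates on LB3.1 columns. Then 1 μM to 1 nM protein was incubated 2 days with 1-10 nM radiolabeled peptide at pH 4 to 7. Finally, complexes were captured for 3 hours and bound cpm determined.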

Another experiment addresses T2, purified HLA DRB1*1501 (Homo sapiens, UniProt P01903+P01911).
T2 construct: purified from EBV transformed homozygous cell lines or single MHC allele transfected 721.221, C1R, or fibroblast lines; made in house
As to the kind of experiment: HLA-DR radioligand binding inhibition assay, DRB1*1501. The method in brief: as §1

The next experiment addresses T3, purified HLA DRB1*0101 (Homo sapiens, UniProt P01903+P01911, A100R/D57E/F55L/F60I/F76Y/I96L/L162R/M171V/P40L/Q125E/R42F/V115G/Y59C).
T3 construct: purified from EBV transformed homozygous cell lines or single MHC allele transfected 721.221, C1R, or fibroblast lines; made in house
The experiment can be described thus: HLA-DR radioligand binding inhibition assay, DRB1*0101. The note with it: IC50 nM purified HLA DRB1 *0101, purified HLA DRB1*0101. In short, it runs like this:
as §1

In the next experiment the target is T4, purified HLA DRB1*0401 (Homo sapiens, UniProt P01903+P01911, A100K/A169T/F76Y/I96L/K127E/L162R/M171V/N62H/P40V/Q125Y/R42H/S133A/S149N/S66Y/V115G/V209L/W38E).
T4 construct: purified from EBV transformed homozygous cell lines or single MHC allele transfected 721.221, C1R, or fibroblast lines; made in house
The experiment can be described thus: HLA-DR radioligand binding inhibition assay, DRB1*0401. To be noted: IC50 nM purified HLA DRB1 *0401, purified HLA DRB1*0401. The method in brief:
as §1

A further experiment has as its target T5, purified HLA DRB1*0802 (Homo sapiens, UniProt P01903+P01911, A100R/A103L/A169T/F76Y/H45Y/I96F/K41T/L162R/M171V/P40S/Q125H/Q178H/Q39Y/Q99D/R218S/R42G/S66Y/V115G/W38E).
T5 construct: purified from EBV transformed homozygous cell lines or single MHC allele transfected 721.221, C1R, or fibroblast lines; made in house
As to the kind of experiment: HLA-DR radioligand binding inhibition assay, DRB1*0802. The note with it: IC50 nM purified HLA DRB1 *0802, purified HLA DRB1*0802. On the procedure: (§2) Instead, wells of an opaque white 96-well Optiplate (Packard) are coated with 3 μg (100 μl@ 30 μg/ml) of HLA-specific antibody (Ab) that “capture” complexes of radiolabeled MHC and unlabeled peptide transferred from the molecular binding assay plate in 100 μl of 0.05% NP40/PBS. After a 3-hour incubation period, the supernatant is decanted and scintillation fluid (Microscint 20) added. Captured complexes are then measured on a microplate scintillation and luminescence counter (TopCount NXTTM; Packard).
(§3) HLA-DR purification. Fifteen distinct HLA-DR molecules were used in quantitative assays to measure the binding of peptides to solubilized HLA-DR molecules. […] Briefly, columns of inactivated Sepharose CL4B and Protein A Sepharose were used as pre-columns. HLA-DR molecules were captured by passage of lysates over LB3.1 monoclonal antibody (anti-HLA-DRA) columns. Antibody columns were washed with 10 mM Tris-HCL, pH8.0 with 1% (v/v) NP-40, followed by PBS containing 0.4% (w/v) n-octylglucoside. […] The pH was reduced to 8.0 and the eluates were concentrated by centrifugation in Centriprep 30 concentrators at 2000 rpm (Amicon, Beverly, Mass.).
(§4) Briefly, 1-10 nM of radiolabeled peptide was co-incubated for 2 days at either room temperature or 37° C. with 1 μM to 1 nM purified HLA-DR molecules in the presence of a cocktail of protease inhibitors. Assays were performed at various pH conditions, ranging from pH 4 to pH 7. […] After incubation, the percentage of HLA-DR-bound radioactivity is determined by capturing HLA-DR/peptide complexes on Optiplates (Packard Instruments, Meriden, Conn.) coated with the LB3.1 antibody and determining bound counts per minute using the TopCount microscintillation counter (Packard Instruments). […] Competitor peptides are tested in 2-4 complete, independent experiments, at concentrations ranging from […].

The target in the next experiment is T6, purified HLA DRB1*0301 (Homo sapiens, UniProt P01903+P01911, A100K/A102G/A103R/A169T/F55Y/I96L/K41T/L162R/M171V/P40S/Q125H/Q178H/Q39Y/R42S/S66N/T106N/T262R/W38E/Y61H).
T6 construct: purified from EBV transformed homozygous cell lines or single MHC allele transfected 721.221, C1R, or fibroblast lines; made in house
The experiment can be described thus: HLA-DR radioligand binding inhibition assay, DRB1*0301. The note with it: IC50 nM purified HLA DRB1 *0301, purified HLA DRB1*0301. How it is done: as §2
HLA-DR purification. Fifteen distinct HLA-DR molecules were used in quantitative assays to measure the binding of peptides to solubilized HLA-DR molecules. […] Briefly, columns of inactivated Sepharose CL4B and Protein A Sepharose were used as pre-columns. HLA-DR molecules were captured by passage of lysates over LB3.1 monoclonal antibody (anti-HLA-DRA) columns. Antibody columns were washed with 10 mM Tris-HCL, pH8.0 with 1% (v/v) NP-40, followed by PBS containing 0.4% (w/v) n-octylglucoside.
Briefly, 1-10 nM of radiolabeled peptide was co-incubated for 2 days at either room temperature or 37° C. with 1 μM to 1 nM purified HLA-DR molecules in the presence of a cocktail of protease inhibitors. Assays were performed at various pH conditions, ranging from pH 4 to pH 7. […] After incubation, the percentage of HLA-DR-bound radioactivity is determined by capturing HLA-DR/peptide complexes on Optiplates (Packard Instruments, Meriden, Conn.) coated with the LB3.1 antibody and determining bound counts per minute using the TopCount microscintillation counter (Packard Instruments).

The next experiment concerns the target T7, purified HLA DRB1*1201 (Homo sapiens, UniProt P01903+P01911, A100R/A169T/D57E/D86V/F55L/H45Y/K41T/L162R/M171V/P40S/Q125H/Q178H/Q39Y/Q99D/R42G/S66L/T262R/V114A/V67L/W38E/Y59H/Y61H/Y89S).
T7 construct: purified from EBV transformed homozygous cell lines or single MHC allele transfected 721.221, C1R, or fibroblast lines; made in house
As to the kind of experiment: HLA-DR radioligand binding inhibition assay, DRB1*1201. How it is done: as §2, §3, §4

The target of the next experiment is T8, purified HLA DRB3*0101 (Homo sapiens, UniProt P01903+P79483).
T8 construct: purified from EBV transformed homozygous cell lines or single MHC allele transfected 721.221, C1R, or fibroblast lines; made in house
As to the kind of experiment: HLA-DR radioligand binding inhibition assay, DRB3*0101. The note with it: IC50 nM purified HLA DRB3 *0101, purified HLA DRB3*0101. How it is done:
as §2, §3, §4

Experiment [1] relates to peptide-specific T cells in PBMC. As to the kind of experiment: 10-day interferon-gamma ELIspot with PBMC of breast or ovarian cancer patients and healthy controls. Type of experiment: cell-based, human. To be noted: for Percent of patients with responses: fraction of breast or ovarian cancer patients with mean T cell values above cutoff (mean + 2 SD of healthy donors). From the text: Each panel represents a unique peptide and each data point is derived from one individual. The grey box (i.e. cutoff) delineates the region that constitutes the mean and two standard deviations calculated from the normal healthy individuals. The percentages represent the fraction of patients that had mean T cell values above the cutoff. The peptides that are circled are those in which a higher fraction of the patients responded compared to the normal healthy controls. These peptides are considered to be the best vaccine candidates. However, it is clear that the rigidness of this approach could potentially result in many false negatives. […] Despite this, we identified 5 candidates to move forward. The fidelity of this approach is evident from a prior study which has already shown that a HER-2/neu peptide, p884-899, which encompasses the binding motif of p885, is an HLA-DR4 epitope.
Enzyme-linked immunosorbent spot assay. A 10-day ELlspot for detecting low-frequency T cells was used to determine reactivity to the tumor antigen peptides (Table 1) as described (Knutson K L et al. J Clin Onc 2006;24: 4254-61). […] PMA/Ionomycin and the CEF pool were used as positive non-tumor related controls as previously described (Knutson, 2006).
Using predictive algorithms discussed above, candidate HLA-DR1-binding epitopes were identified. […] An interferon-gamma ELIspot assay was used to assess immunity to the indiscriminate binding peptides in 48 patients with either breast or ovarian cancer and 18 healthy controls.
Using an ELlspot assay with a limit of detection of approximately […], patient-derived PBMC were screened for reactivity against all of the HLA-DR binding peptides.

For experiment [2], the system named is 15 different HLA-DR molecules. The experiment can be described thus: HLA-DR binding assays, panel of 15 different HLA-DR molecules (breadth of binding). To be noted: number of the 15 HLA-DR molecules bound (binders: 1000 nM or better).

As a reminder, the IC50 is the concentration that inhibits the measured activity by half. On to `CC[C@H](C)[C@H](NC(=O)[C@H](CS)NC(=O)[C@H](Cc1c[nH]c2ccccc12)NC(=O)[C@@H](N)CCCNC(=N)N)C(=O)N1CCC[C@H]1C(=O)N[C@@H](Cc1c[nH]c2ccccc12)C(=O)N[C@@H](CCC(N)=O)C(=O)N[C@@H](CCCNC(=N)N)C(=O)N[C@@H](CC(C)C)C(=O)N[C@@H](CC(C)C)C(=O)N[C@@H](CC(C)C)C(=O)N[C@H](C(=O)N[C@@H](C)C(=O)N[C@@H](CO)C(=O)N[C@@H](CC(C)C)C(=O)O)[C@@H](C)O` [Peptide 9019.0104], for which the IC50 at purified HLA DRB5*0101 worked out at 4010 nM; on purified HLA DRB1*1501 it was 61 nM; on purified HLA DRB1*0101, 1470 nM; on purified HLA DRB1*0401, 426 nM; on purified HLA DRB1*0802, 263 nM; on purified HLA DRB1*0301 it was 7860 nM. In addition, the IC50 was 1560 nM on purified HLA DRB1*1201 and greater than 20000 nM on purified HLA DRB3*0101.
In the case of `CC(C)C[C@H](NC(=O)[C@H](CC(N)=O)NC(=O)[C@H](CO)NC(=O)[C@@H](NC(=O)[C@H](Cc1ccccc1)NC(=O)[C@H](CS)NC(=O)[C@H](C)NC(=O)[C@@H](N)Cc1ccc(O)cc1)C(C)C)C(=O)N[C@@H](C)C(=O)N[C@H](C(=O)NCC(=O)N[C@@H](CCCNC(=N)N)C(=O)N[C@@H](CC(N)=O)C(=O)N[C@@H](CC(N)=O)C(=O)N[C@@H](CO)C(=O)O)[C@@H](C)O` [Peptide 9019.0141], the “Percent of patients with responses” value in experiment [1] was determined as 25%. The “Total XRN” value in [2] worked out at 9.
Consider `CC[C@H](C)[C@H](N)C(=O)N[C@@H](CCCCN)C(=O)N[C@@H](Cc1c[nH]c2ccccc12)C(=O)N[C@@H](CCSC)C(=O)N[C@@H](C)C(=O)N[C@@H](CC(C)C)C(=O)N[C@@H](CCC(=O)O)C(=O)N[C@@H](CO)C(=O)N[C@H](C(=O)N[C@@H](CC(C)C)C(=O)N[C@@H](CCCNC(=N)N)C(=O)N[C@@H](CCCNC(=N)N)C(=O)N[C@@H](CCCNC(=N)N)C(=O)N[C@@H](Cc1ccccc1)C(=O)N[C@H](C(=O)O)[C@@H](C)O)[C@@H](C)CC` [Peptide 9019.0003], for which the “Percent of patients with responses” value in experiment [1] stood at 4%. In addition, the “patient response rate on exclusion of one healthy individual with a robust response” value in experiment [1] (recalculated cutoff, FIG. 1) was 15%. In [2], the “Total XRN” value is 10.

These data come from patent US20140377340A1, “HLA-DR BINDING PEPTIDES AND THEIR USES” (priority 2007, published 2014).
